Assay [1] deals with BaF3-WT cells (Homo sapiens, UniProt P00533). The assay is described as follows: Cell antiproliferation assay (CellTiter-Glo), BaF3-WT. It is filed as cell-based. As to conditions: 48 h treatment, read-out: BaF3-WT IC50. As to the method: (§1) BaF3 cells are treated with compounds diluted in 0.2% DMSO, dilution is done according to the following protocol: (1) make 500× stock solution in DMSO from 5 mM by 5-fold dilution, total 8 doses were included; (2) make 10× solution in cell culture medium by transferring 2 μl 500× stock solution into 98 μl medium; (3) 10 μl of 10× solution is added to cells and incubate for 48 h.
(§2) After 48 h treatment, add 30 μl CellTiter-Glo reagent[CellTiter-Glo® 2.0, (Promega, Cat #G9242)] to each well; seal the plate and incubate 2 min at room temperature on a plate shaker; Allow the plate to incubate at room temperature for 10 minutes to stabilize the luminescent signal. Record luminescence on BMG PheraStar with luminescence protocol.
(§3) The IC50 value of a compound can be obtained by fitting the following equation
(§4) Wherein, X and Y are known values, and IC50, Hillslope, Top and Bottom are the parameters obtained by fitting with software. Y is the inhibition percentage (calculated from the equation), X is the concentration of the compound; IC50 is the concentration of the compound when the 50% inhibition is reached. The smaller the IC50 value is, the stronger the inhibitory ability of the compound is. Vice versa, the higher the IC50 value is, the weaker the ability the inhibitory ability of the compound is; Hillslope represents the slope of the fitted curve, generally around 1 *; Bottom represents the minimum value of the curve obtained by data fitting, which is generally 0%±20%; Top represents the maximum value of the curve obtained by data fitting, which is generally 100%±20%. The experimental data were fitted by calculating and analyzing with Dotmatics data analysis software.
A general note: ATP-based viability assays read luminescence as a measure of living cells.

The target in assay [2] is BaF3-LR_TM_CS cells (Homo sapiens, UniProt P00533, T790M/C797S/L858R, cells depend on it). The assay is described as follows: Cell antiproliferation assay (CellTiter-Glo), BaF3-LR_TM_CS. It is filed as cell-based. Particulars: 48 h treatment, read-out: BaF3-LR_TM_CS IC50. As to the method: as §1, §2, §3, §4
The target of assay [3] is T1, EGFR(L858R_T790M_C797S) (aa695-end, Invitrogen) (Homo sapiens, UniProt P00533, C797S/L858R/T790M).
T1 construct: purchased Invitrogen
The assay can be described thus: Biochemical EGFR inhibition assay (TR-FRET), L858R/T790M/C797S mutant. Particulars: ATP at Km, 15 min pre-incubation, 60 min reaction; read-out: LR_TM_CS (Km ATP) IC50. In a few lines:
(§5)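 First the enzyme sat with compound for 15 minutes at room temperature, then ATP (Km level) and biotinylated poly-GT were added for a 60 min reaction. Stop solution with EDTA, anti-pTyr cryptate and streptavidin-XL665 followed for 1 h before TR-FRET reading.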
(In general: Time-resolved FRET reads energy transfer from a long-lived donor to a nearby acceptor.)

Assay [4] deals with BaF3-Del_TM_CS cells (Homo sapiens, UniProt P00533, T790M/C797S, cells depend on it, form not given). The assay is described as follows: Cell antiproliferation assay (CellTiter-Glo), BaF3-Del_TM_CS. The format is cell-based. Particulars: 48 h treatment, read-out: BaF3-Del_TM_CS IC50. As for the experimental part: as §1, §2, §3, §4
For assay [5], the target named is EGFR(Dell9_T790M_C797S) (aa 669-1210, in house) (Homo sapiens, UniProt P00533, T790M/C797S, form not given). The assay is described as follows: Biochemical EGFR inhibition assay (TR-FRET), Del19/T790M/C797S mutant. As to conditions: ATP at Km, 15 min pre-incubation, 60 min reaction; read-out: Del_TM_CS (Km ATP) IC50. In a few lines:
as §5

Assay [6] concerns the target T2, EGFR (aa668-1210, Invitrogen) (Homo sapiens, UniProt P00533).
T2 construct: EGFR (aa668-1210, Invitrogen); purchased Invitrogen
The assay is described as follows: Biochemical EGFR inhibition assay (TR-FRET), wild-type EGFR. Particulars: ATP at Km, 15 min pre-incubation, 60 min reaction; read-out: WT (Km ATP) IC50. In a few lines:
as §5

Here are results for 14 compounds from patent US20260167619A2, “INDOLINE COMPOUNDS AND DERIVATIVES AS EGFR INHIBITORS” (BeOne Medicines I GmbH, priority 2020, published 2026).

The IC50 is the point on the concentration scale where inhibition reaches its midpoint.

T2 sequence (P00533 668-1210): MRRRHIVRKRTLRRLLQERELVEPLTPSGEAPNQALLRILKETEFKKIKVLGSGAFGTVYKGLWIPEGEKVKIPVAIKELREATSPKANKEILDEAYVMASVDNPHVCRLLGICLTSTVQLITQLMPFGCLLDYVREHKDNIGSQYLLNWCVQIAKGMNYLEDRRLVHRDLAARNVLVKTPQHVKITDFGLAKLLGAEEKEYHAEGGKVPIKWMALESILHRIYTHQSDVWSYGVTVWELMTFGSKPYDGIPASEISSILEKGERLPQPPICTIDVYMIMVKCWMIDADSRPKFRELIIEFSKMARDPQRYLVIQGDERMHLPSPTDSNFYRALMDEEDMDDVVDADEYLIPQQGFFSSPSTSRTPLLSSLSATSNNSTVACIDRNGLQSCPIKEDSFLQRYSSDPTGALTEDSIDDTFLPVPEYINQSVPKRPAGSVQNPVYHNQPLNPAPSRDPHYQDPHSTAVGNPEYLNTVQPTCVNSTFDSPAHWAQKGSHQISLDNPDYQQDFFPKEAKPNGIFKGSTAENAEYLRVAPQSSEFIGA
BaF3-WT cells, sequence (P00533 whole entry, change not shown): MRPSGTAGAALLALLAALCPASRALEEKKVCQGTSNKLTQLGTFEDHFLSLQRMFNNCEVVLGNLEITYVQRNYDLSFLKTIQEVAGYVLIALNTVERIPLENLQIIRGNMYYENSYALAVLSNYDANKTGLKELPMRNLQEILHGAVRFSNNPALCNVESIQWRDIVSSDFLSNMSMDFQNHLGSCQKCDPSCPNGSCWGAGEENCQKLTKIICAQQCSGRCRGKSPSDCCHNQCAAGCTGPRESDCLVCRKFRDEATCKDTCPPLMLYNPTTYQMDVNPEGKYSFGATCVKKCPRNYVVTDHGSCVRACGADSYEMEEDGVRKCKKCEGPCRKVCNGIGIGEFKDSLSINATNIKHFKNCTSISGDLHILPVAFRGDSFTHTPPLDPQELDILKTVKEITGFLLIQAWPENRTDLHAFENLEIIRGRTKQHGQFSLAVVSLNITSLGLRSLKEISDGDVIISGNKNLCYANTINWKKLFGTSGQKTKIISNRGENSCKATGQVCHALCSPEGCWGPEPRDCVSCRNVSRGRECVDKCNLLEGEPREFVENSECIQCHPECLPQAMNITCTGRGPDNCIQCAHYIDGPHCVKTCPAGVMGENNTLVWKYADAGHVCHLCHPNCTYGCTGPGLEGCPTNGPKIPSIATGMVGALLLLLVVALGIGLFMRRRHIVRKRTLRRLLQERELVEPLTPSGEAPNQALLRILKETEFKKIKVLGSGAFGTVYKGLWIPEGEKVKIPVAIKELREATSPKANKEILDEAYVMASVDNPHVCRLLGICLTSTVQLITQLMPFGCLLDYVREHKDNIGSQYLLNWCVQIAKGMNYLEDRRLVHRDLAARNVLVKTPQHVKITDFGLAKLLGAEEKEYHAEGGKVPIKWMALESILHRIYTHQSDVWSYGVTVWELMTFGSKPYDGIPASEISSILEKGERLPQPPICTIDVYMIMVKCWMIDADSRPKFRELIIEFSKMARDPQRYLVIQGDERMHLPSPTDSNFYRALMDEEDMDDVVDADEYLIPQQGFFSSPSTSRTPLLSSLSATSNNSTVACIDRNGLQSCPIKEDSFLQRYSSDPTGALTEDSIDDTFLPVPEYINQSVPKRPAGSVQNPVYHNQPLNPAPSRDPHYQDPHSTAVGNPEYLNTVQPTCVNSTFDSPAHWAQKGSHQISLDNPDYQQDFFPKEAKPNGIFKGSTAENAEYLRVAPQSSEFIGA
BaF3-LR_TM_CS cells, sequence (P00533 whole entry T790M/C797S/L858R, the tested form may be a part): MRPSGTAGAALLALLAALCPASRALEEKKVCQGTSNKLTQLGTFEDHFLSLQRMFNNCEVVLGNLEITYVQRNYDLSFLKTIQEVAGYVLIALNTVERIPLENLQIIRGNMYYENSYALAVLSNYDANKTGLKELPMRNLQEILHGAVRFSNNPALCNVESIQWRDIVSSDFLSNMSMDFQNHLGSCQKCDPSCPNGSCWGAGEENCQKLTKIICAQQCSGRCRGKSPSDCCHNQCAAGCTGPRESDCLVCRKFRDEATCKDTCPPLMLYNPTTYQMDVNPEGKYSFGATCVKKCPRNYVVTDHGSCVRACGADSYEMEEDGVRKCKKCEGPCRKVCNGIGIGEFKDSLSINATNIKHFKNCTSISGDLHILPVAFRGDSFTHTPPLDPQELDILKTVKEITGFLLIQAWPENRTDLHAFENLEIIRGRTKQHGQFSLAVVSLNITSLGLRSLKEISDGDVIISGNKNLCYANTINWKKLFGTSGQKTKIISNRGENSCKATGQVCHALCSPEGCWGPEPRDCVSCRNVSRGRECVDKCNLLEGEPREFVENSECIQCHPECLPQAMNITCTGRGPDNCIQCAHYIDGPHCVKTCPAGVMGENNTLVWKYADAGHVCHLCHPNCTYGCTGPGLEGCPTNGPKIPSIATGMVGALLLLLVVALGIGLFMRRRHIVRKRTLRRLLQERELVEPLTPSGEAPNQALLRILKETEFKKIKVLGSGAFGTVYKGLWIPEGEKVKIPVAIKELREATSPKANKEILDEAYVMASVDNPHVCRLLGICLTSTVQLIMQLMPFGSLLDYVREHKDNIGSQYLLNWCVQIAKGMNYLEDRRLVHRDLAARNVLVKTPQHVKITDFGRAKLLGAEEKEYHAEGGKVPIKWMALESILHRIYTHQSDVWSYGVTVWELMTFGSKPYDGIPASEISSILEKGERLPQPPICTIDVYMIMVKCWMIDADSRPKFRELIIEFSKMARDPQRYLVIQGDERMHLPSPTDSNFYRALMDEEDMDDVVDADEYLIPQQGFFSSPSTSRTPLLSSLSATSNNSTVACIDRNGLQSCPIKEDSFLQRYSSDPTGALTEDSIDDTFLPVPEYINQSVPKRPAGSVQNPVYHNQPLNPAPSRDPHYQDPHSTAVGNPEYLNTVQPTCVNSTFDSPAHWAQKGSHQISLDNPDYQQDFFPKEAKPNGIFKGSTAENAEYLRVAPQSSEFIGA
T1 sequence (P00533 695-1210 T790M/C797S/L858R): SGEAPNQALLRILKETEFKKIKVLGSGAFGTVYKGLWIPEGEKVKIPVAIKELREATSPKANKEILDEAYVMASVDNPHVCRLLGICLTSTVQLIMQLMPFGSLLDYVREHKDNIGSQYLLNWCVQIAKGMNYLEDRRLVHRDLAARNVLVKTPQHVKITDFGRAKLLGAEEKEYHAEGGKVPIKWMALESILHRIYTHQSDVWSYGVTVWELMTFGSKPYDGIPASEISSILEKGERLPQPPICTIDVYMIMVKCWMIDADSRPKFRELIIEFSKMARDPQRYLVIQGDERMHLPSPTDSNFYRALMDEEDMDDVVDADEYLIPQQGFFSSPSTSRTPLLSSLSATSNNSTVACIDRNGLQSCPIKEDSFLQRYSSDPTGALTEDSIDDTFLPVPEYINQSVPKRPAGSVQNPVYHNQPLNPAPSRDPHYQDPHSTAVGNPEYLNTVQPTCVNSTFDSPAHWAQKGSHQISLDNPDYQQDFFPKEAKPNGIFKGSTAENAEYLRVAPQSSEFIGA
BaF3-Del_TM_CS cells, sequence (P00533 with tags, fused parts or gaps DEL746-750/T790M/C797S, form open): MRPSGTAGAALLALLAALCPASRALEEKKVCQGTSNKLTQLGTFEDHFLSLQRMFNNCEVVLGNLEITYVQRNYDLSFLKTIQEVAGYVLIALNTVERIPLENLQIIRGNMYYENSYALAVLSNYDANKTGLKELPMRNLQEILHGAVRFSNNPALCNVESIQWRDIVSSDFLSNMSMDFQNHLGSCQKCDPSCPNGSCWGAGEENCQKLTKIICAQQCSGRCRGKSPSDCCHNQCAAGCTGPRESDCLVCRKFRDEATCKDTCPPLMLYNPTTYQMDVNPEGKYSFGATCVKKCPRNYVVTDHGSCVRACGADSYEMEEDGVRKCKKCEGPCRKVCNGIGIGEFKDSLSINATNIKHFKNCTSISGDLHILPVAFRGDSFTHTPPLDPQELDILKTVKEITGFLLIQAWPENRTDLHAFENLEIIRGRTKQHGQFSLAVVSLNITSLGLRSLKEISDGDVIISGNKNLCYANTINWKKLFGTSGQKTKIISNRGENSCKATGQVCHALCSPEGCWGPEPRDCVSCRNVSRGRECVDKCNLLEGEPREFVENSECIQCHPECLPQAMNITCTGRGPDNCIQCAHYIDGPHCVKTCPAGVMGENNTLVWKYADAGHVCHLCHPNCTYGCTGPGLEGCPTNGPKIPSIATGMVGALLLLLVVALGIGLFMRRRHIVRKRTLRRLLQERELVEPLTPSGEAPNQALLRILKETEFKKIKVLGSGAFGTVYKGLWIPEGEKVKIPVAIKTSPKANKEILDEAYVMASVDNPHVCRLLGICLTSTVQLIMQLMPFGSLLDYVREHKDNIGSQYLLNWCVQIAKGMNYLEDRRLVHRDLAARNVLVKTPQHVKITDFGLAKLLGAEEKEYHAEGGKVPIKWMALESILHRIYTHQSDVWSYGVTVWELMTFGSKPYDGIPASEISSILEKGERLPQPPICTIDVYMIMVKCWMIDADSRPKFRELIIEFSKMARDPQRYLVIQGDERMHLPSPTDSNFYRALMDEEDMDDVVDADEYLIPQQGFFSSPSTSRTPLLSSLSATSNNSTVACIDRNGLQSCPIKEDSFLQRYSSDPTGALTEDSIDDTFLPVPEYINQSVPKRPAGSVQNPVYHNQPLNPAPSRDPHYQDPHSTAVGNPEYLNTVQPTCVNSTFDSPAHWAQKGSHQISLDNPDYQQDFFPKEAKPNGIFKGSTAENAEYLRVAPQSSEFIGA

Turning to `COc1cc(N2CCC(N3CCN(C)CC3)CC2)ccc1Nc1ncc(Cl)c(Nc2cccc3c2N(S(=O)(=O)CC2CC(F)(F)C2)CC3)n1` [Example 11, 5-chloro-N^4-(1-(((3,3-difluorocyclobutyl)methyl)sulfonyl)indolin-7-yl)-N^2-(2-methoxy-4-(4-(4-methylpiperazin-1-yl)piperidin-1-yl)phenyl)pyrimidine-2,4-diamine], the GI50 in assay [1] was determined as 2280 nM; in assay [2] it was 377 nM; in assay [4], 453 nM. Further, the IC50 was found to be 5.5 nM in assay [3], 38 nM in assay [5] and 37 nM in assay [6].
`COc1cc(N2CCC(N3CCN(C)CC3)CC2)ccc1Nc1ncc(Cl)c(Nc2cccc3c2N(C(C)=O)CC3)n1` [Example 17, 1-(7-((5-chloro-2-((2-methoxy-4-(4-(4-methylpiperazin-1-yl)piperidin-1-yl)phenyl)amino)pyrimidin-4-yl)amino)indolin-1-yl)ethan-1-one]: the results for the GI50 in assay [1], in assay [2] and in assay [4] were 1710 nM, 366 nM and 183 nM, respectively. Besides, the IC50 in assay [3] was found to be 6.7 nM; in assay [5] it was 15 nM; in assay [6], 21 nM.
On to `COc1cc(N2CCC(N3CCN(C)CC3)CC2)ccc1Nc1ncc(Cl)c(Nc2cccc3c2N(S(=O)(=O)N(C)C)CC3)n1` [Example 13, 7-((5-chloro-2-((2-methoxy-4-(4-(4-methylpiperazin-1-yl)piperidin-1-yl)phenyl)amino)pyrimidin-4-yl)amino)-N,N-dimethylindoline-1-sulfonamide], for which the GI50 in assay [1] worked out at 897 nM; in assay [2], 294 nM; in assay [4], 158 nM. Besides, the IC50 in assay [3] stood at 1.3 nM; in assay [5], 6.2 nM; in assay [6], 13 nM.
Consider `COc1cc(N2CCC3(CC2)CN(C)C3)c(C)cc1Nc1nc(Nc2cccc3c2N(S(C)(=O)=O)CC3)c2cc[nH]c2n1` [Example 100, N^2-(2-methoxy-5-methyl-4-(2-methyl-2,7-diazaspiro[3.5]nonan-7-yl)phenyl)-N^4-(1-(methylsulfonyl)indolin-7-yl)-7H-pyrrolo[2,3-d]pyrimidine-2,4-diamine], for which the GI50 stood at 1590 nM in assay [1], 116 nM in assay [2] and 39.9 nM in assay [4]. The IC50 came out at 0.92 nM in assay [3], 1 nM in assay [5] and 49 nM in assay [6].
With `CN1CCN(c2ccc(Nc3nc(Nc4cccc5c4N(S(C)(=O)=O)CC5)c4cc[nH]c4n3)c(F)c2F)CC1` [Example 85, N^2-(2,3-difluoro-4-(4-methylpiperazin-1-yl)phenyl)-N^4-(1-(methylsulfonyl)indolin-7-yl)-7H-pyrrolo[2,3-d]pyrimidine-2,4-diamine], the GI50 in assay [1] worked out at 274 nM; in assay [2], 141 nM; in assay [4], 91.6 nM. The concentration for half-maximal inhibition (IC50) stood at 8.9 nM in assay [3], 15 nM in assay [5] and 1300 nM in assay [6].
Take `CN1CCN(C2CCN(c3ccc(Nc4nc(Nc5cccc6c5N(S(C)(=O)=O)CC6)c5cc[nH]c5n4)c4c3CCO4)CC2)CC1` [Example 125, N^2-(4-(4-(4-methylpiperazin-1-yl)piperidin-1-yl)-2,3-dihydrobenzofuran-7-yl)-N^4-(1-(methylsulfonyl)indolin-7-yl)-7H-pyrrolo[2,3-d]pyrimidine-2,4-diamine]: the GI50 was determined as 394 nM in assay [1], 61.3 nM in assay [2] and 38.3 nM in assay [4]. Also, the results for the half-maximal inhibitory concentration (IC50) in assay [3], in assay [5] and in assay [6] were 1.2 nM, 1.6 nM and 106 nM, respectively.
Turning to `CN1CCN(C2CCN(c3ccc(Nc4ncc(Br)c(Nc5cccc6c5N(S(C)(=O)=O)CC6)n4)c4c3CC(C)(C)O4)CC2)CC1` [Example 57, 5-bromo-N^2-(2,2-dimethyl-4-(4-(4-methylpiperazin-1-yl)piperidin-1-yl)-2,3-dihydrobenzofuran-7-yl)-N^4-(1-(methylsulfonyl)indolin-7-yl)pyrimidine-2,4-diamine], the IC50 in assay [3] stood at 17.1 nM; in assay [5], 8.79 nM; in assay [6], 101 nM.
The corresponding values for `COc1cc(N2CCC(N3CCN(C)C(=O)C3)CC2)ccc1Nc1nc(Nc2cccc3c2N(S(C)(=O)=O)CC3)c2cc[nH]c2n1` [Example 186, 4-(1-(3-methoxy-4-((4-((1-(methylsulfonyl)indolin-7-yl)amino)-7H-pyrrolo[2,3-d]pyrimidin-2-yl)amino)phenyl)piperidin-4-yl)-1-methylpiperazin-2-one] are 1.5 nM, 4.9 nM and 140 nM.
In the same order, the values of `CN1CCN(C2CCN(c3ccc(Nc4nc(Nc5cccc6c5N(S(C)(=O)=O)CC6)c5cc[nH]c5n4)cc3F)CC2)CC1` [Example 79, N^2-(3-fluoro-4-(4-(4-methylpiperazin-1-yl)piperidin-1-yl)phenyl)-N^4-(1-(methylsulfonyl)indolin-7-yl)-7H-pyrrolo[2,3-d]pyrimidine-2,4-diamine] are 0.26 nM, 0.29 nM and 14 nM.
In the same order, the values of `C#Cc1cnc(Nc2ccc(N3CCC(N4CCN(C)CC4)CC3)cc2OC)nc1Nc1cccc2c1N(S(C)(=O)=O)CC2` [Example 196, 5-ethynyl-N2-(2-methoxy-4-(4-(4-methylpiperazin-1-yl)piperidin-1-yl)phenyl)-N4-(1-(methylsulfonyl)indolin-7-yl)pyrimidine-2,4-diamine] are 1.3 nM, 1.5 nM and 9.3 nM.
In the case of `COc1cc(-c2cnn(CCN3CCN(C)CC3)c2)ccc1Nc1nc(Nc2cccc3c2N(S(C)(=O)=O)CC3)c2cc[nH]c2n1` [Example 115, N^2-(2-methoxy-4-(1-(2-(4-methylpiperazin-1-yl)ethyl)-1H-pyrazol-4-yl)phenyl)-N^4-(1-(methylsulfonyl)indolin-7-yl)-7H-pyrrolo[2,3-d]pyrimidine-2,4-diamine], the IC50 in assay [3] stood at 20.7 nM; in assay [5], 42.8 nM; in assay [6], 2490 nM.
The corresponding values for `COc1cc(Nc2nc(Nc3cccc4c3N(S(C)(=O)=O)CC4)c3cc[nH]c3n2)ccc1N1CCC(N2CCN(C)CC2)CC1` [Example 81, N^2-(3-methoxy-4-(4-(4-methylpiperazin-1-yl)piperidin-1-yl)phenyl)-N^4-(1-(methylsulfonyl)indolin-7-yl)-7H-pyrrolo[2,3-d]pyrimidine-2,4-diamine] are 0.44 nM, 0.76 nM and 82.7 nM.
As to `COc1cc(N2CCC(N3CCN(C)CC3)CC2)ccc1Nc1ncc(Br)c(Nc2cccc3c2N(S(C)(=O)=O)C(C)(C)C3)n1` [Example 134, 5-bromo-N4-(2,2-dimethyl-1-(methylsulfonyl)indolin-7-yl)-N2-(2-methoxy-4-(4-(4-methylpiperazin-1-yl)piperidin-1-yl)phenyl)pyrimidine-2,4-diamine], the IC50 in assay [3] was 0.3 nM; in assay [5] it was 0.8 nM; in assay [6], 11.5 nM.
The corresponding values for `CN(C)C1CCN(c2ccc(Nc3ncc(Br)c(Nc4cccc5c4N(S(C)(=O)=O)CC5)n3)c3c2CCC3)CC1` [Example 53, 5-bromo-N^2-(7-(4-(dimethylamino)piperidin-1-yl)-2,3-dihydro-1H-inden-4-yl)-N^4-(1-(methylsulfonyl)indolin-7-yl)pyrimidine-2,4-diamine] are 0.32 nM, 0.28 nM and 6.5 nM.
